EP0080819A1, “11-0-Alkylerythromycin A derivatives” (TAISHO PHARMACEUTICAL CO. LTD, priority 1981, dated 1983)

Test system: Staphylococcus aureus Smith No. 4
Assay: In vivo antibacterial activity (mouse protection test, number of surviving mice)
Details: oral, one hour after inoculation, male ddY mice, groups of 20, 10^7 cells per mouse, i.p., living mice for seven days after administration
Method: Male ddY mice weighing 20 - 23 g in groups 20 each were inoculated with Staphylococcus aureus Smith No. 4 (10^7 cells per mouse, i.p.). Erythromycin A was used as a control, the compound of formula I wherein R is methyl group("compound 1") was administered orally at one hour after inoculation, and the number of living mice for seven days after administration was calculated to determine the in vivo antibacterial activity.

Structure (SMILES) | In vivo Antibacterial Activity [The Number of Surviving Mice] (dose 0.5 mg/mouse) | In vivo Antibacterial Activity [The Number of Surviving Mice] (dose 1 mg/mouse) | In vivo Antibacterial Activity [The Number of Surviving Mice] (dose 2 mg/mouse) | In vivo Antibacterial Activity [The Number of Surviving Mice] (dose 4 mg/mouse)
CC[C@H]1OC(=O)[C@H](C)[C@@H](O[C@H]2C[C@@](C)(OC)[C@@H](O)[C@H](C)O2)[C@H](C)[C@@H](O[C@@H]2O[C@H](C)C[C@H](N(C)C)[C@H]2O)[C@](C)(O)C[C@@H](C)C(=O)[C@H](C)[C@@H](OC)[C@]1(C)O [Compound 1, 11-0-methylerythromycin A] | 6 | 12 | 20 | 20
CC[C@H]1OC(=O)[C@H](C)[C@@H](O[C@H]2C[C@@](C)(OC)[C@@H](O)[C@H](C)O2)[C@H](C)[C@@H](O[C@@H]2O[C@H](C)C[C@H](N(C)C)[C@H]2O)[C@](C)(O)C[C@@H](C)C(=O)[C@H](C)[C@@H](O)[C@]1(C)O [Erythromycin A] | 4 | 8 | 18 | 20
